In US20220089575A1, “FARNESOID X RECEPTOR AGONISTS AND USES THEREOF” (Metacrine, Inc., priority 2017, published 2022):

Biological target: T1, hFXR (Homo sapiens, UniProt Q96RI1)
T1 construct: expressed in transfected cells; host or cells: CV-1 cells
T1 sequence (Q96RI1 1-486): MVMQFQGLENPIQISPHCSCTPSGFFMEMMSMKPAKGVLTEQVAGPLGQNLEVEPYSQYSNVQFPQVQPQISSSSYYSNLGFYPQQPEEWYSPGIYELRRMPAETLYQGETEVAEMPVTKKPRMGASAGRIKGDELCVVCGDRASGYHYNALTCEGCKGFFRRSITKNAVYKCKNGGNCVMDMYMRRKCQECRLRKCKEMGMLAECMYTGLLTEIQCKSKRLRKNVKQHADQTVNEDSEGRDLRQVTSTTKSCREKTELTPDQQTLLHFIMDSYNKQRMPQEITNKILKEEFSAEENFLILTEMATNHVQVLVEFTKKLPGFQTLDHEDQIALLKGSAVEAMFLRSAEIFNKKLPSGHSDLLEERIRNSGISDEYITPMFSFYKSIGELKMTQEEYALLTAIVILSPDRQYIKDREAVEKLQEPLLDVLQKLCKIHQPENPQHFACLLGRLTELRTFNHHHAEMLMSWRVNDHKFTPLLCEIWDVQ
T1 sequence (P19793 1-462 partner): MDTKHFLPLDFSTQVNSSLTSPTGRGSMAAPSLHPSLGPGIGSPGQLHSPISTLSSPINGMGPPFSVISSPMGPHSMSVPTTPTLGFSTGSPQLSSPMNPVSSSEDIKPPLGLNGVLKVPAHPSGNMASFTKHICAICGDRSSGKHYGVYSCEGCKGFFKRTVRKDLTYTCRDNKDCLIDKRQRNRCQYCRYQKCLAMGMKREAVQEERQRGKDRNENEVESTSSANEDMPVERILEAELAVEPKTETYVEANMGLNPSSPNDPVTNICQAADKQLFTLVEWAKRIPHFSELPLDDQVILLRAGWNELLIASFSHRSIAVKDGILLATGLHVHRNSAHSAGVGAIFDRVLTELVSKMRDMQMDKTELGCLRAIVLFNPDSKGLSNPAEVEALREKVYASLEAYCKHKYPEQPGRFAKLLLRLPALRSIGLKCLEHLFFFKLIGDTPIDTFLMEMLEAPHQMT
Experiment: In Vitro FXR Assay (TK): TK-ECRE-luc reporter in transfected CV-1 cells
Type: cell-based
Details: 18 hrs, luminescence, maximum efficacy of <25% of the Fexarmine control classified as '+'
Experimental: CV-1 cells were seeded at a density of 2,000,000 cells in a T175 flask with DMEM+10% charcoal double-stripped FBS and incubated at 37° C. in 5% CO2 for 18 h (O/N).
After 18 h of incubation, the medium in the T175 flask was changed with fresh DMEM+10% charcoal super-stripped serum. In a polypropylene tube, 2500 μL OptiMEM (Life Technologies, Cat #31985-062) was combined with expression plasmids for hFXR, hRXR, TK-ECRE-luc and pCMX-YFP. The tube was then briefly vortexed and incubated at room temperature for 5 minutes. Transfection reagent (X-tremeGENE HP from Roche, Cat #06 366 236 001) was added to the OptiMEM/plasmid mixture vortexed and incubated at room temperature for 20 minutes. Following incubation, the transfection reagent/DNA mixture complex was added to cells in the T175 flask and the cells were incubated at 37° C. in 5% CO2 for 18 h (O/N).
Compounds were serially diluted in DMSO and added to transfected CV-1 cells. The cells were then incubated for 18 hrs. The next day cells were lysed and examined for luminescence.

Row | EC50 | Compound
1 | ≤ 0.25 µM | CNC(=O)O[C@H]1CC[C@H](C(=O)N(CC23CCC(c4ccc(N(C)C)nc4)(CC2)CC3)c2cccc(-c3coc(C4CC4)n3)c2)CC1 [Compound 3, 4-((3-(2-Cyclopropyloxazol-4-yl)phenyl)((4-(6-(dimethylamino)pyridin-3-yl)bicyclo[2.2.2]octan-1-yl)methyl)carbamoyl)cyclohexyl trans-methylcarbamate]
2 | ≤ 0.25 µM | CCNC(=O)O[C@H]1CC[C@H](C(=O)N(C[C@H]2CC[C@H](c3ccc(OC)c(C)c3)CC2)c2cccc(-c3cnn(C4CC4)c3)c2)CC1 [Compound 3.01, trans-4-((3-(1-Cyclopropyl-1H-pyrazol-4-yl)phenyl)((trans-4-(4-methoxy-3-methylphenyl)cyclohexyl)methyl)carbamoyl)cyclohexyl ethylcarbamate]
3 | ≤ 0.25 µM | CNC(=O)O[C@H]1CC[C@H](C(=O)N(C[C@H]2CC[C@H](c3ccc(OC)c(C)n3)CC2)c2cccc(-c3cnn(C4CC4)c3)c2)CC1 [Compound 3.02, trans-4-((3-(1-Cyclopropyl-1H-pyrazol-4-yl)phenyl)((trans-4-(5-methoxy-6-methylpyridin-2-yl)cyclohexyl)methyl)carbamoyl)cyclohexyl methylcarbamate]
4 | ≤ 0.25 µM | CNC(=O)O[C@H]1CC[C@H](C(=O)N(CC23CCC(c4ccc(N(C)C)nc4)(CC2)CC3)c2cccc(-c3cnn(C4CC4)c3)c2)CC1 [Compound 3.03, 4-((3-(1-Cyclopropyl-1H-pyrazol-4-yl)phenyl)((4-(6-(dimethylamino)pyridin-3-yl)bicyclo[2.2.2]octan-1-yl)methyl)carbamoyl)cyclohexyl trans-methylcarbamate]
5 | ≤ 0.25 µM | CNC(=O)O[C@H]1CC[C@H](C(=O)N(C[C@H]2CC[C@H](c3ccc(OC)c(C)c3)CC2)c2cc(-c3cnn(C4CC4)c3)ccn2)CC1 [Compound 3.04, trans-4-((4-(1-Cyclopropyl-1H-pyrazol-4-yl)pyridin-2-yl)((trans-4-(4-methoxy-3-methylphenyl)cyclohexyl)methyl)carbamoyl)cyclohexyl methylcarbamate]
6 | ≤ 0.25 µM | CNC(=O)O[C@H]1CC[C@H](C(=O)N(C[C@H]2CC[C@H](c3ccc(N(C)C)nc3)CC2)c2cccc(-c3coc(C4CC4)n3)c2)CC1 [Compound 3.05, trans-4-((3-(2-Cyclopropyloxazol-4-yl)phenyl)((trans-4-(6-(dimethylamino)pyridine-3-yl)cyclohexyl)methyl)carbamoyl)cyclohexyl methylcarbamate]
7 | ≤ 0.25 µM | COc1ccc([C@H]2CC[C@H](CN(c3cccc(-c4cnn(C5CC5)c4)c3)C(=O)[C@H]3CC[C@H](OC(=O)NCCO)CC3)CC2)cc1C [Compound 4, trans-4-((3-(1-Cyclopropyl-1H-pyrazol-4-yl)phenyl)((trans-4-(4-methoxy-3-methylphenyl)cyclohexyl)methyl)carbamoyl)cyclohexyl (2-hydroxyethyl)carbamate]
8 | ≤ 0.25 µM | COc1ccc([C@H]2CC[C@H](CN(c3cccc(-c4cnc(C5CC5)s4)c3)C(=O)[C@H]3CC[C@H](OC(=O)NCCO)CC3)CC2)cc1C [Compound 4.01, trans-4-((3-(2-Cyclopropylthiazol-5-yl)phenyl)((trans-4-(4-methoxy-3-methylphenyl)cyclohexyl)methyl)carbamoyl)cyclohexyl (2-hydroxyethyl)carbamate]
9 | ≤ 0.25 µM | COc1ccc(C23CCC(CN(c4cccc(-c5cnc(C6CC6)s5)c4)C(=O)[C@H]4CC[C@H](OC(=O)NCCO)CC4)(CC2)CC3)cc1C [Compound 4.02, 4-((3-(2-Cyclopropylthiazol-5-yl)phenyl)((4-(4-methoxy-3-methylphenyl)bicyclo[2.2.2]octan-1-yl)methyl)carbamoyl)cyclohexyl (2-hydroxyethyl)trans-carbamate]
10 | ≤ 0.25 µM | CN(C)c1ccc(C23CCC(CN(c4cccc(-c5cnc(C6CC6)s5)c4)C(=O)[C@H]4CC[C@H](OC(=O)NCCO)CC4)(CC2)CC3)cn1 [Compound 4.03, 4-((3-(2-Cyclopropylthiazol-5-yl)phenyl)((4-(6-(dimethylamino)pyridin-3-yl)bicyclo[2.2.2]octan-1-yl)methyl)carbamoyl)cyclohexyl (2-hydroxyethyl)trans-carbamate]
11 | ≤ 0.25 µM | COc1ccc(C23CCC(CN(c4cccc(-c5cnn(C6CC6)c5)c4)C(=O)[C@H]4CC[C@H](OC(=O)NCCO)CC4)(CC2)CC3)cc1C [Compound 4.04, 4-((3-(1-Cyclopropyl-1H-pyrazol-4-yl)phenyl)((4-(4-methoxy-3-methylphenyl)bicyclo[2.2.2]octan-1-yl)methyl)carbamoyl)cyclohexyl (2-hydroxyethyl)trans-carbamate]
12 | ≤ 0.25 µM | COc1ccc([C@H]2CC[C@H](CN(c3cccc(-c4cnn(C5CC5)c4)c3)C(=O)[C@H]3CC[C@H](OC(=O)NC(C)C)CC3)CC2)cc1C [Compound 4.05, trans-4-((3-(1-Cyclopropyl-1H-pyrazol-4-yl)phenyl)((trans-4-(4-methoxy-3-methylphenyl)cyclohexyl)methyl)carbamoyl)cyclohexyl isopropylcarbamate]
13 | ≤ 0.25 µM | COc1ccc([C@H]2CC[C@H](CN(c3cccc(-c4cnn(C5CC5)c4)c3)C(=O)[C@H]3CC[C@H](OC(=O)N4CC(OC)C4)CC3)CC2)cc1C [Compound 4.06, trans-4-((3-(1-Cyclopropyl-1H-pyrazol-4-yl)phenyl)((trans-4-(4-methoxy-3-methylphenyl)cyclohexyl)methyl)carbamoyl)cyclohexyl 3-methoxyazetidine-1-carboxylate]
14 | ≤ 0.25 µM | COc1ccc([C@H]2CC[C@H](CN(c3cccc(-c4cnn(C5CC5)c4)c3)C(=O)[C@H]3CC[C@H](OC(=O)N4CCOCC4)CC3)CC2)cc1C [Compound 4.07, trans-4-((3-(1-Cyclopropyl-1H-pyrazol-4-yl)phenyl)((trans-4-(4-methoxy-3-methylphenyl)cyclohexyl)methyl)carbamoyl)cyclohexyl morpholine-4-carboxylate]
15 | ≤ 0.25 µM | COc1ccc([C@H]2CC[C@H](CN(c3cccc(-c4cnn(C5CC5)c4)c3)C(=O)[C@H]3CC[C@H](OC(=O)NC4CC4)CC3)CC2)cc1C [Compound 4.08, trans-4-((3-(1-Cyclopropyl-1H-pyrazol-4-yl)phenyl)((trans-4-(4-methoxy-3-methylphenyl)cyclohexyl)methyl)carbamoyl)cyclohexyl cyclopropylcarbamate]
16 | ≤ 0.25 µM | COc1ccc([C@H]2CC[C@H](CN(c3cccc(-c4cnn(C5CC5)c4)c3)C(=O)[C@H]3CC[C@H](OC(=O)NCCN(C)C)CC3)CC2)cc1C [Compound 4.09, trans-4-((3-(1-Cyclopropyl-1H-pyrazol-4-yl)phenyl)((trans-4-(4-methoxy-3-methylphenyl)cyclohexyl)methyl)carbamoyl)cyclohexyl (2-(dimethylamino)ethyl)carbamate]
17 | ≤ 0.25 µM | COc1ccc([C@H]2CC[C@H](CN(c3cccc(-c4cnn(C5CC5)c4)c3)C(=O)[C@H]3CC[C@H](OC(=O)NCCCO)CC3)CC2)cc1C [Compound 4.10, trans-4-((3-(1-Cyclopropyl-1H-pyrazol-4-yl)phenyl)((trans-4-(4-methoxy-3-methylphenyl)cyclohexyl)methyl)carbamoyl)cyclohexyl (3-hydroxypropyl)carbamate]
18 | ≤ 0.25 µM | COc1ccc([C@H]2CC[C@H](CN(c3cccc(-c4cnn(C5CC5)c4)c3)C(=O)[C@H]3CC[C@H](OC(=O)NCCCN(C)C)CC3)CC2)cc1C [Compound 4.11, trans-4-((3-(1-Cyclopropyl-1H-pyrazol-4-yl)phenyl)((trans-4-(4-methoxy-3-methylphenyl)cyclohexyl)methyl)carbamoyl)cyclohexyl (3-(dimethylamino)propyl)carbamate]
19 | ≤ 0.25 µM | CN(C)c1ccc(C23CCC(CN(c4cccc(-c5cnn(C6CC6)c5)c4)C(=O)[C@H]4CC[C@H](OC(=O)NCCO)CC4)(CC2)CC3)cn1 [Compound 4.12, 4-((3-(1-Cyclopropyl-1H-pyrazol-4-yl)phenyl)((4-(6-(dimethylamino)pyridin-3-yl)bicyclo[2.2.2]octan-1-yl)methyl)carbamoyl)cyclohexyl (2-hydroxyethyl)trans-carbamate]
